Read-outs that look alike come from different tables or passages of the source. Positions of bridges follow the written chain, without caps; N, C: chain ends. Non-standard residues stand in square brackets, D forms with d. Residues, ends and D or L forms follow the SMILES beside them. Phe(3,4-Me2) = Cc1ccc(C[C@H](N)C(=O)O)cc1C; Phe(2-OMe) = COc1ccccc1C[C@H](N)C(=O)O; Phe(3-F) = N[C@@H](Cc1cccc(F)c1)C(=O)O; hhPhe = N[C@@H](CCCc1ccccc1)C(=O)O; Hyp = O=C(O)[C@@H]1C[C@@H](O)CN1; 2Pal = N[C@@H](Cc1ccccn1)C(=O)O; 3Pal = N[C@@H](Cc1cccnc1)C(=O)O; AllylGly = C=CC[C@H](N)C(=O)O; NMeNle = CCCC[C@H](NC)C(=O)O; NMeA = CN[C@@H](C)C(=O)O; Dap = NC[C@H](N)C(=O)O
What was measured:
[1] = target: T1, Human PD-L1/PD-1 (Homo sapiens, UniProt Q9NZQ7); test: HTRF PD-1-Ig/PD-L1-His binding assay (human PD-L1)
T1 construct: made in house; host or cells: HEK293T
T1 sequence (Q9NZQ7 with tags, fused parts or gaps): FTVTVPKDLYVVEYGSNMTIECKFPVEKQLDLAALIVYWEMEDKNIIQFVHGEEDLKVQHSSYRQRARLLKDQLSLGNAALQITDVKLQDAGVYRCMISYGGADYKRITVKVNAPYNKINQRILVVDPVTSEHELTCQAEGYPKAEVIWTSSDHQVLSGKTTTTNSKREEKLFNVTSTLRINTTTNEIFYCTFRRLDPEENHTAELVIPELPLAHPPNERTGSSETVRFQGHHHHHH
In short: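 Ig- and His-fused extracellular PD-1/PD-L1 binding in BSA/Tween-20 dPBS. HTRF with Eu anti-Ig (1 nM final) and APC anti-His (20 nM final).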

[2] = target: T2, LK35.2-hPD-L1 cells / PE-labeled PD-1-Ig (Homo sapiens, UniProt Q9NZQ7); test: LK35.2-hPD-L1 cell binding high-content screening assay; type: cell-based; conditions: cell binding assay, cell line not given
T2 construct: expressed in transfected cells; host or cells: LK35.2 mouse B cell line
T2 sequence (Q9NZQ7 19-290): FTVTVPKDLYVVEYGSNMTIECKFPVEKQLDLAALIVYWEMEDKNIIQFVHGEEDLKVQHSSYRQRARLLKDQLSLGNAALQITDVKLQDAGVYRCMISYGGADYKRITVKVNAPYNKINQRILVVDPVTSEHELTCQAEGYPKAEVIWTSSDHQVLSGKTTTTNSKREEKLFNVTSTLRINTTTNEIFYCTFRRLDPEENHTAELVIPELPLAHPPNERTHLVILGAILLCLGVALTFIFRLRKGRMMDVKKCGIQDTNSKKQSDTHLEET
In short: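 Mouse LK35.2 B cells stably over-expressing human PD-L1, cultured overnight, treated with compound plus PE-labeled human PD-1-Ig (1 nM final) in RPMI/10% FCS for 1 h at 37 °C. After washing, bound fluorescence quantified by high-content imaging.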

[3] = cluster symbol, read-out: HTRF IC50 cluster
[4] = cluster symbol, read-out: CBA IC50 cluster

Compound	IC50 [1, 3] [nM]	IC50 [2, 4] [nM]	IC50 ([1]; value given instead of cluster, read-out: HTRF IC50 value) [nM]	IC50 ([2]; value given instead of cluster, read-out: CBA IC50 value) [nM]
CCCC[C@H]1C(=O)N(C)[C@@H](CCCC)C(=O)N[C@@H](CCCNC(=N)N)C(=O)N[C@H](C(=O)NCC(N)=O)C/C=C/C(=O)N[C@@H](Cc2ccc(O)cc2)C(=O)N(C)[C@@H](C)C(=O)N[C@@H](CC(N)=O)C(=O)N2CCCC2C(=O)N[C@@H](CN)C(=O)N[C@@H](CC(C)C)C(=O)N2C[C@H](O)C[C@H]2C(=O)N[C@@H](Cc2c[nH]c3ccccc23)C(=O)N[C@@H](CO)C(=O)N[C@@H](Cc2c[nH]c3ccccc23)C(=O)N1C (stereo partly shown) [Example 7013]	6.76 to 30.3	4.78 to 72.9		
C=CC[C@@H]1NC(=O)[C@H](Cc2c[nH]c3ccccc23)NC(=O)[C@@H]2CCCN2C(=O)[C@H](CC(C)C)NC(=O)[C@H](Cc2cnc[nH]2)NC(=O)[C@@H]2CCCN2C(=O)[C@H](CC(N)=O)NC(=O)[C@H](C)N(C)C(=O)[C@H](Cc2ccc(O)cc2)NC(=O)CSC[C@@H](C(=O)NCC(N)=O)NC(=O)[C@H](CC=C)NC(=O)[C@H](CCCC)N(C)C(=O)[C@H](CCCC)N(C)C(=O)[C@H](Cc2c[nH]c3ccccc23)NC1=O [Example 7014] ({CH2CO}-Y[NMeA]NPHLPW[AllylGly]W[NMeNle][NMeNle][AllylGly]CG-NH2; thioether N-14)	0.385 to 6.74	0.158 to 4.71		
CCCC[C@H]1C(=O)N(C)[C@@H](CCCC)C(=O)N[C@@H](CCCNC(=N)N)C(=O)N[C@H](C(=O)NCC(N)=O)CSCC(=O)N[C@@H](Cc2ccc(C)c(C)c2)C(=O)N(C)[C@@H](C)C(=O)N[C@@H](CC(N)=O)C(=O)N2CCC[C@H]2C(=O)N[C@@H](Cc2cnc[nH]2)C(=O)N[C@@H](CC(C)C)C(=O)N2CCC[C@H]2C(=O)N[C@@H](Cc2c[nH]c3ccccc23)C(=O)N[C@@H](CO)C(=O)N[C@@H](Cc2c[nH]c3ccccc23)C(=O)N1C [Example 7015] ({CH2CO}-[Phe(3,4-Me2)][NMeA]NPHLPWSW[NMeNle][NMeNle]RCG-NH2; thioether N-14)	6.76 to 30.3	4.78 to 72.9		
CCCC[C@H]1C(=O)N(C)[C@@H](CCCC)C(=O)N[C@@H](CCCNC(=N)N)C(=O)N[C@H](C(=O)NCC(N)=O)CSCC(=O)N[C@@H](Cc2cccc(F)c2)C(=O)N(C)[C@@H](C)C(=O)N[C@@H](CC(N)=O)C(=O)N2CCC[C@H]2C(=O)N[C@@H](Cc2cnc[nH]2)C(=O)N[C@@H](CC(C)C)C(=O)N2CCC[C@H]2C(=O)N[C@@H](Cc2c[nH]c3ccccc23)C(=O)N[C@@H](CO)C(=O)N[C@@H](Cc2c[nH]c3ccccc23)C(=O)N1C [Example 7016] ({CH2CO}-[Phe(3-F)][NMeA]NPHLPWSW[NMeNle][NMeNle]RCG-NH2; thioether N-14)	6.76 to 30.3	4.78 to 72.9		
CCCC[C@H]1C(=O)N(C)[C@@H](CCCC)C(=O)N[C@@H](CCCNC(=N)N)C(=O)N[C@H](C(=O)NCC(N)=O)CSCC(=O)N[C@@H](Cc2ccccc2OC)C(=O)N(C)[C@@H](C)C(=O)N[C@@H](CC(N)=O)C(=O)N2CCC[C@H]2C(=O)N[C@@H](Cc2cnc[nH]2)C(=O)N[C@@H](CC(C)C)C(=O)N2CCC[C@H]2C(=O)N[C@@H](Cc2c[nH]c3ccccc23)C(=O)N[C@@H](CO)C(=O)N[C@@H](Cc2c[nH]c3ccccc23)C(=O)N1C [Example 7017] ({CH2CO}-[Phe(2-OMe)][NMeA]NPHLPWSW[NMeNle][NMeNle]RCG-NH2; thioether N-14)	0.385 to 6.74	4.78 to 72.9		
CCCC[C@H]1C(=O)N(C)[C@@H](CCCC)C(=O)N[C@@H](CCCNC(=N)N)C(=O)N[C@H](C(=O)NCC(N)=O)CSCC(=O)N[C@@H](CCCc2ccccc2)C(=O)N(C)[C@@H](C)C(=O)N[C@@H](CC(N)=O)C(=O)N2CCC[C@H]2C(=O)N[C@@H](Cc2cnc[nH]2)C(=O)N[C@@H](CC(C)C)C(=O)N2CCC[C@H]2C(=O)N[C@@H](Cc2c[nH]c3ccccc23)C(=O)N[C@@H](CO)C(=O)N[C@@H](Cc2c[nH]c3ccccc23)C(=O)N1C [Example 7018] ({CH2CO}-[hhPhe][NMeA]NPHLPWSW[NMeNle][NMeNle]RCG-NH2; thioether N-14)			13.6	228
C=CC[C@@H]1NC(=O)[C@H](Cc2c[nH]c3ccccc23)NC(=O)[C@@H]2C[C@@H](O)CN2C(=O)[C@H](CC(C)C)NC(=O)[C@H](Cc2cnc[nH]2)NC(=O)[C@@H]2CCCN2C(=O)[C@H](CC(N)=O)NC(=O)[C@H](C)N(C)C(=O)[C@H](Cc2ccc(O)cc2)NC(=O)CSC[C@@H](C(=O)NCC(N)=O)NC(=O)[C@H](CC=C)NC(=O)[C@H](CCCC)N(C)C(=O)[C@H](CCCC)N(C)C(=O)[C@H](Cc2c[nH]c3ccccc23)NC1=O [Example 7019] ({CH2CO}-Y[NMeA]NPHL[Hyp]W[AllylGly]W[NMeNle][NMeNle][AllylGly]CG-NH2; thioether N-14)	0.385 to 6.74	0.158 to 4.71		
C=CC[C@@H]1NC(=O)[C@H](Cc2c[nH]c3ccccc23)NC(=O)[C@@H]2CCCN2C(=O)[C@H](CC(C)C)NC(=O)[C@H](Cc2cnc[nH]2)NC(=O)[C@@H]2CCCN2C(=O)[C@H](CC(N)=O)NC(=O)[C@H](C)N(C)C(=O)[C@H](Cc2ccc(O)cc2)NC(=O)CSC[C@@H](C(=O)NCC(N)=O)NC(=O)[C@H](C)NC(=O)[C@H](CCCC)N(C)C(=O)[C@H](CCCC)N(C)C(=O)[C@H](Cc2c[nH]c3ccccc23)NC1=O [Example 7020] ({CH2CO}-Y[NMeA]NPHLPW[AllylGly]W[NMeNle][NMeNle]ACG-NH2; thioether N-14)	0.385 to 6.74	4.78 to 72.9		
C=CC[C@@H]1NC(=O)[C@H](Cc2c[nH]c3ccccc23)NC(=O)[C@@H]2CCCN2C(=O)[C@H](CC(C)C)NC(=O)[C@H](Cc2cnc[nH]2)NC(=O)[C@@H]2CCCN2C(=O)[C@H](CC(N)=O)NC(=O)[C@H](C)N(C)C(=O)[C@H](Cc2cnc[nH]2)NC(=O)CSC[C@@H](C(=O)NCC(N)=O)NC(=O)[C@H](CC=C)NC(=O)[C@H](CCCC)N(C)C(=O)[C@H](CCCC)N(C)C(=O)[C@H](Cc2c[nH]c3ccccc23)NC1=O [Example 7021] ({CH2CO}-H[NMeA]NPHLPW[AllylGly]W[NMeNle][NMeNle][AllylGly]CG-NH2; thioether N-14)	> 30.5	> 74.3		
C=CC[C@@H]1NC(=O)[C@H](Cc2c[nH]c3ccccc23)NC(=O)[C@@H]2CCCN2C(=O)[C@H](CC(C)C)NC(=O)[C@H](CN)NC(=O)[C@@H]2CCCN2C(=O)[C@H](CC(N)=O)NC(=O)[C@H](C)N(C)C(=O)[C@H](Cc2ccc(O)cc2)NC(=O)CSC[C@@H](C(=O)NCC(N)=O)NC(=O)[C@H](CC=C)NC(=O)[C@H](CCCC)N(C)C(=O)[C@H](CCCC)N(C)C(=O)[C@H](Cc2c[nH]c3ccccc23)NC1=O [Example 7022] ({CH2CO}-Y[NMeA]NP[Dap]LPW[AllylGly]W[NMeNle][NMeNle][AllylGly]CG-NH2; thioether N-14)	6.76 to 30.3	4.78 to 72.9		
C=CC[C@@H]1NC(=O)[C@H](Cc2c[nH]c3ccccc23)NC(=O)[C@@H]2CCCN2C(=O)[C@H](CC(C)C)NC(=O)[C@H](Cc2c[nH]cn2)NC(=O)[C@@H]2CCCN2C(=O)[C@H](CC(N)=O)NC(=O)[C@H](C)N(C)C(=O)[C@H](Cc2ccccn2)NC(=O)CSC[C@@H](C(=O)NCC(N)=O)NC(=O)[C@H](CC=C)NC(=O)[C@H](CCCC)N(C)C(=O)[C@H](CCCC)N(C)C(=O)[C@H](Cc2c[nH]c3ccccc23)NC1=O [Example 7023] ({CH2CO}-[2Pal][NMeA]NPHLPW[AllylGly]W[NMeNle][NMeNle][AllylGly]CG-NH2; thioether N-14)	> 30.5	> 74.3		
CCCC[C@H]1C(=O)N(C)[C@@H](CCCC)C(=O)N[C@@H](CCCNC(=N)N)C(=O)N[C@H](C(=O)NCC(N)=O)CSCC(=O)N[C@@H](Cc2cccnc2)C(=O)N(C)[C@@H](C)C(=O)N[C@@H](CC(N)=O)C(=O)N2CCC[C@H]2C(=O)N[C@@H](Cc2c[nH]cn2)C(=O)N[C@@H](CC(C)C)C(=O)N2C[C@H](O)C[C@H]2C(=O)N[C@@H](Cc2c[nH]c3ccccc23)C(=O)N[C@@H](CO)C(=O)N[C@@H](Cc2c[nH]c3ccccc23)C(=O)N1C [Example 7024] ({CH2CO}-[3Pal][NMeA]NPHL[Hyp]WSW[NMeNle][NMeNle]RCG-NH2; thioether N-14)	6.76 to 30.3	4.78 to 72.9		
CCCC[C@H]1C(=O)N(C)[C@@H](CCCC)C(=O)N[C@@H](CCCNC(=N)N)C(=O)N[C@H](C(=O)NCC(N)=O)CSCC(=O)N[C@@H](Cc2ccccn2)C(=O)N(C)[C@@H](C)C(=O)N[C@@H](CC(N)=O)C(=O)N2CCC[C@H]2C(=O)N[C@@H](Cc2c[nH]cn2)C(=O)N[C@@H](CC(C)C)C(=O)N2C[C@H](O)C[C@H]2C(=O)N[C@@H](Cc2c[nH]c3ccccc23)C(=O)N[C@@H](CO)C(=O)N[C@@H](Cc2c[nH]c3ccccc23)C(=O)N1C [Example 7025] ({CH2CO}-[2Pal][NMeA]NPHL[Hyp]WSW[NMeNle][NMeNle]RCG-NH2; thioether N-14)	> 30.5	> 74.3		
CCCC[C@H]1C(=O)N(C)[C@@H](CCCC)C(=O)N[C@@H](CCCNC(=N)N)C(=O)N[C@H](C(=O)NCC(N)=O)CSCC(=O)N[C@@H](Cc2ccc(O)cc2)C(=O)N(C)[C@@H](C)C(=O)N[C@@H](CC(N)=O)C(=O)N2CCC[C@H]2C(=O)N[C@@H](Cc2ccccn2)C(=O)N[C@@H](CC(C)C)C(=O)N2C[C@H](O)C[C@H]2C(=O)N[C@@H](Cc2c[nH]c3ccccc23)C(=O)N[C@@H](CO)C(=O)N[C@@H](Cc2c[nH]c3ccccc23)C(=O)N1C [Example 7026] ({CH2CO}-Y[NMeA]NP[2Pal]L[Hyp]WSW[NMeNle][NMeNle]RCG-NH2; thioether N-14)	6.76 to 30.3	4.78 to 72.9		
